# Measurements published in patent US9617267B2, “Compounds and methods for kinase modulation, and indications therefor” (Plexxikon Inc., priority 2009, dated 2017).
# Experiments:
# [1] = target: B-Raf V600E (Homo sapiens (Human), UniProt P15056, V600E); experiment: B-Raf V600E kinase activity biochemical assay (AlphaScreen, biotin-MEK1 phosphorylation); conditions: for IC50: B-Raf V600E; for Biochemical activity ratio V600E/C: ratio of IC50 B-Raf V600E / c-Raf-1
# Outline: (§1)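 Biotin-MEK1 phosphorylation measured after 45 min kinase reaction at RT with 100 μM ATP final; compounds tested at 8 points from 0.1 mM DMSO stock.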
# [2] = target: CYP3A4(BFC) (Homo sapiens (Human), UniProt P08684); experiment: CYP enzyme inhibition, fluorescent substrate BFC
# Outline: (§2)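 IC50 values come from plotting product fluorescence against compound concentration; inhibition lowers formation of the fluorescent metabolite. Ten-point twofold dilutions in co-factor mix were held 10 minutes at 37 °C before the enzyme reaction, also run at 37 °C.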
# [3] = target: B-Raf (Homo sapiens (Human), UniProt P15056); experiment: B-Raf kinase activity biochemical assay (AlphaScreen, biotin-MEK1 phosphorylation); conditions: B-Raf
# Outline: as §1
# [4] = tested on: B-Raf; experiment: as above; conditions: for Biochemical activity ratio B/V600E: ratio of IC50 B-Raf / B-Raf V600E; for Biochemical activity ratio B/C: ratio of IC50 B-Raf / c-Raf-1
# Outline: as §1
# [5] = target: CYP2D6 (Homo sapiens (Human), UniProt P10635); experiment: CYP enzyme inhibition, fluorescent substrate (AMMC); format: in vitro ADME; conditions: read-out: Cyp IC50 2D6
# Outline: (§3)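 Ten-point 1:1 compound dilutions in NADPH-regenerating cofactor mix, pre-incubated 10 min at 37 °C before enzyme/substrate addition: CYP1A2 0.5 pmol with 5 μM CEC, 15 min, 409 ex/460 em; CYP2D6 1.5 pmol with 1.5 μM AMMC, 30 min, 409 ex/530 em. IC50 from fluorescent product vs concentration.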
# [6] = target: c-Raf-1 (Homo sapiens, UniProt P04049); experiment: c-Raf-1 kinase activity biochemical assay (AlphaScreen, biotin-MEK1 phosphorylation)
# Outline: as §1
# [7] = target: CYP2C9 (Homo sapiens (Human), UniProt P11712); experiment: CYP enzyme inhibition, fluorescent substrate (MFC)
# Outline: as §2
# [8] = target: CYP2C19 (Homo sapiens (Human), UniProt P33261); experiment: CYP enzyme inhibition, fluorescent substrate (CEC)
# Outline: as §2
# [9] = target: CYP3A4(BQ) (Homo sapiens (Human), UniProt P08684); experiment: CYP enzyme inhibition, fluorescent substrate BQ
# Outline: as §2
# [10] = target: CYP1A2 (Homo sapiens (Human), UniProt P05177); experiment: CYP enzyme inhibition, fluorescent substrate (CEC)
# Outline: as §3
# [11] = Relative solubility by turbidity threshold concentration in aqueous buffers (pH 1.5, 4.5, 6.8, 7.4); format: physicochemical; conditions: for turbidity threshold (L, M, H) 1.4: pH 1.4 [sic] (method: SGF pH 1.5); for turbidity threshold (L, M, H) 4.5: pH 4.5 (SIF); for turbidity threshold (L, M, H) 6.8: pH 6.8 (SIF); for turbidity threshold (L, M, H) 7.4: pH 7.4 (HEPES)
# Outline: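 Solubility class (high >250 μM, moderate 31.3–250 μM, low <31.3 μM) comes from the concentration where absorbance reaches a 0.01 threshold, averaged across 490/535/650 nm. Samples were compound dilutions from DMSO stock, 1 μL into 99 μL buffer at pH 1.5, 4.5, 6.8 or 7.4.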
# [12] = target: CYP3A4 (Homo sapiens (Human), UniProt P08684); experiment: CYP enzyme inhibition, fluorescent substrate BFC; conditions: human, CYP3A4 enzyme (BD Biosciences), probe BFC
# Outline: as §2
# CYP2C19, sequence (P33261 whole entry): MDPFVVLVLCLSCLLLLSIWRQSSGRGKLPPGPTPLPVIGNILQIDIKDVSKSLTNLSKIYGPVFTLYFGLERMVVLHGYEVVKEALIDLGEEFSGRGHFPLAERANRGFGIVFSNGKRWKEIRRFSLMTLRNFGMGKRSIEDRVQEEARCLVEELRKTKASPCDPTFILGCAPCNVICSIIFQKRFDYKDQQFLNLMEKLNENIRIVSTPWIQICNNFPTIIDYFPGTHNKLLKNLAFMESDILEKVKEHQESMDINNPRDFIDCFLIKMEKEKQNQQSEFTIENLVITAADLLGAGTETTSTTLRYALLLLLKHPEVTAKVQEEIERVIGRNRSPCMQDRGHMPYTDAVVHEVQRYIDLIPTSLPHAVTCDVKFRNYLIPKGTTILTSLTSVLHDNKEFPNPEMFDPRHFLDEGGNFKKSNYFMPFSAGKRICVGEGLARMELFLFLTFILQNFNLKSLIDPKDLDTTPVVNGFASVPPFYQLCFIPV
# B-Raf (Homo sapiens (Human), UniProt P15056), sequence (P15056 whole entry): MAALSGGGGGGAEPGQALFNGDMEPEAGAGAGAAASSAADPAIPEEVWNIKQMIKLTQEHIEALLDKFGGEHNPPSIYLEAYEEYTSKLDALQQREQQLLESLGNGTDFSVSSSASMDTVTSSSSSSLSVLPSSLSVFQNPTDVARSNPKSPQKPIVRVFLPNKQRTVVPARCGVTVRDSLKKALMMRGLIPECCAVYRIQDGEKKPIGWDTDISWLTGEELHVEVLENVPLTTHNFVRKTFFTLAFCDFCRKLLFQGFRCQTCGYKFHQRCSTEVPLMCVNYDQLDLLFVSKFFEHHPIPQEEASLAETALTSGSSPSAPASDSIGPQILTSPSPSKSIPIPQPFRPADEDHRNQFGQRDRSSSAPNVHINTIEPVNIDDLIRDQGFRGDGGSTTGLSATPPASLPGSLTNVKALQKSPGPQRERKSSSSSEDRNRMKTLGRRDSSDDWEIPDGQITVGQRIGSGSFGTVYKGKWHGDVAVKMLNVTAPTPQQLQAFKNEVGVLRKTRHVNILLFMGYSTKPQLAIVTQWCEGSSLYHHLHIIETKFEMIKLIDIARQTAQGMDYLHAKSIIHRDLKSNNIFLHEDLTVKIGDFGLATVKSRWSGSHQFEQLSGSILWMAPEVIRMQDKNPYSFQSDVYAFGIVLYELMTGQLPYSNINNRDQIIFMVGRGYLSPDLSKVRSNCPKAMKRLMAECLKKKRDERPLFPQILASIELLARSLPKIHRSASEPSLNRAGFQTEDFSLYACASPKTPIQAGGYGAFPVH
# c-Raf-1, sequence (P04049 whole entry, looked up): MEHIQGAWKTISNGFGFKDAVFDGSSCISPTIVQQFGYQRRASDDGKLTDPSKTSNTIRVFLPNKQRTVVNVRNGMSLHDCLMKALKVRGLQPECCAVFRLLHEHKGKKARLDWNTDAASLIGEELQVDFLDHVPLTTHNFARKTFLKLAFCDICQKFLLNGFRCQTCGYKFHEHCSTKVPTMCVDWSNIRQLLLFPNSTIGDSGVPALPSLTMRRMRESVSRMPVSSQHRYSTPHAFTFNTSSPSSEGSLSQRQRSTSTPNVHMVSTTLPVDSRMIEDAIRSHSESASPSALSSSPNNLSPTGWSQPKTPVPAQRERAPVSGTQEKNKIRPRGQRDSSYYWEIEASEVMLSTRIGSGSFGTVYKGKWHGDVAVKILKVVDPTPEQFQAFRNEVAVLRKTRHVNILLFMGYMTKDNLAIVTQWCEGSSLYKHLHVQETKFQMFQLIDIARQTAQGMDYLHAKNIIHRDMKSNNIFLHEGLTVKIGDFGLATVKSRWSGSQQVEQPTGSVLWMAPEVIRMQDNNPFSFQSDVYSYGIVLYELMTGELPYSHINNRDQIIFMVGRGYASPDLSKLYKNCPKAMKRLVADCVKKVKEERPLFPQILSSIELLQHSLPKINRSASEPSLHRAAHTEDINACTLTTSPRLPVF
# CYP2C9, sequence (P11712 whole entry): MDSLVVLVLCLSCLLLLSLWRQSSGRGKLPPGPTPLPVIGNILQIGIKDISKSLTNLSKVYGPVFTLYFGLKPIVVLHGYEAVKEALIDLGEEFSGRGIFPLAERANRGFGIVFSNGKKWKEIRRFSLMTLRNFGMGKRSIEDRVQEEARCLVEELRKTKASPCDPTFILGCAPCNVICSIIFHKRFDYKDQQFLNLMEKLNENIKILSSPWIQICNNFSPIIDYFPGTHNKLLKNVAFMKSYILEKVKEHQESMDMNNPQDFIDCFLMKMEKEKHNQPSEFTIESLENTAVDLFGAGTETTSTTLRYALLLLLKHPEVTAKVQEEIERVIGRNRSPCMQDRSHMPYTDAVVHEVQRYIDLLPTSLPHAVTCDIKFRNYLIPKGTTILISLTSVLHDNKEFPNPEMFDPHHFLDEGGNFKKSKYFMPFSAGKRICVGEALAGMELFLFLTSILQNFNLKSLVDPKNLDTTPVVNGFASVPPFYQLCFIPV
# CYP2D6, sequence (P10635 whole entry): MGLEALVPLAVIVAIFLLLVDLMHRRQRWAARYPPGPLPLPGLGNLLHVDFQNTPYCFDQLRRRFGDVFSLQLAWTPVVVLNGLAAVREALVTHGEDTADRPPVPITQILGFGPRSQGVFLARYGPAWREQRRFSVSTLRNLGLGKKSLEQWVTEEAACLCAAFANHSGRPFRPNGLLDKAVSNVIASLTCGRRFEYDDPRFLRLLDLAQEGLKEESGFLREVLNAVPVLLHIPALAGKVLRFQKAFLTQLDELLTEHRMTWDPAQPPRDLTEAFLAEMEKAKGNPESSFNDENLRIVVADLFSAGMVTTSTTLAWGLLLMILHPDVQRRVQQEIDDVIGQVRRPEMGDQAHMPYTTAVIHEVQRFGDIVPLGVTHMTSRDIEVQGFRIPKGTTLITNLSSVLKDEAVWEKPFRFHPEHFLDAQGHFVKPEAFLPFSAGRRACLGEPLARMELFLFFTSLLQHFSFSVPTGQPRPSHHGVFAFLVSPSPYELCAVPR
# B-Raf V600E, sequence (P15056 whole entry V600E): as the sequence (P15056 whole entry) above, with V600E counted along it
# CYP1A2, sequence (P05177 whole entry): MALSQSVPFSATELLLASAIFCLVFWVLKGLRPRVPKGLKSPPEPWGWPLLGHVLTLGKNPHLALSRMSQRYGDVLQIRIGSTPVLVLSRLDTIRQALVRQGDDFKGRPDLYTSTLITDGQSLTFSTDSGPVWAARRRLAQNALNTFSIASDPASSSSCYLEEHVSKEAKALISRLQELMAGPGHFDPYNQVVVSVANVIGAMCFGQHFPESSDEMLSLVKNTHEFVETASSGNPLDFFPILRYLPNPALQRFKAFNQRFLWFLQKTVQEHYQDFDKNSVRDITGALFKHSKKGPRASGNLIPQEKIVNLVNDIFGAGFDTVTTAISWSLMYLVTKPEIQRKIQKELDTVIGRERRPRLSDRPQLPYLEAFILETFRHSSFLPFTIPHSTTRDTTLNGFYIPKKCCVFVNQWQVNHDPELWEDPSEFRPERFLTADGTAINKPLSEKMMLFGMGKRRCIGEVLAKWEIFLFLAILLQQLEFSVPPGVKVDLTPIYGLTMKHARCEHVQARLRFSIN
# CYP3A4(BQ), sequence (P08684 whole entry): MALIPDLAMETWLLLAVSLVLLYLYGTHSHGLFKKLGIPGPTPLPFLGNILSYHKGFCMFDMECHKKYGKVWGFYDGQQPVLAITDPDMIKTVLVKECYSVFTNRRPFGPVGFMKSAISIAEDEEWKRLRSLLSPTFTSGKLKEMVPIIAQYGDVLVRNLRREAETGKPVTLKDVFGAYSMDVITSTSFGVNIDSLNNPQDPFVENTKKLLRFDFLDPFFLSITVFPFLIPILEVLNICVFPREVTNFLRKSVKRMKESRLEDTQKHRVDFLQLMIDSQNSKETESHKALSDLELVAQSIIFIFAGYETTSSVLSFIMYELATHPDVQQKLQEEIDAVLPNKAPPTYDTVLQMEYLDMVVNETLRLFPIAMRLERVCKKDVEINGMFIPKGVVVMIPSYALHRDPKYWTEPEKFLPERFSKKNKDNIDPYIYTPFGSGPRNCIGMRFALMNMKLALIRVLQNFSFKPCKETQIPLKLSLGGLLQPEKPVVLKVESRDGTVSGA
# CYP3A4(BFC), sequence (P08684 whole entry): as above
# CYP3A4, sequence (P08684 whole entry): as above
SMILES,IC50 [1] [µM],Biochemical activity ratio V600E/C [1],IC50 [2] [µM],IC50 [3] [µM],Biochemical activity ratio B/V600E [4],Biochemical activity ratio B/C [4],IC50 [5] [µM],IC50 [6] [µM],IC50 [7] [µM],IC50 [8] [µM],IC50 [9] [µM],IC50 [10] [µM],"turbidity threshold (L, M, H) 1.4 [11]","turbidity threshold (L, M, H) 4.5 [11]","turbidity threshold (L, M, H) 6.8 [11]","turbidity threshold (L, M, H) 7.4 [11]",other results
"CCCS(=O)(=O)Nc1ccc(F)c(C(=O)c2c[nH]c3ncc(Cl)c(C)c23)c1F [P-2008, Propane-1-sulfonic acid [3-(5-chloro-4-methyl-1H-pyrrolo[2,3-b]pyridine-3-carbonyl)-2,4-difluoro-phenyl]-amide]",< 0.1,0.1-10,> 10,< 0.1,0.1-10,0.1-10,> 10,< 0.1,5 to 10,5 to 10,> 10,> 10,L (low solubility if the threshold concentration is <31.3 μM),M (moderate solubility if the threshold concentration is 31.3 μM to 250 μM),L (low solubility if the threshold concentration is <31.3 μM),M (moderate solubility if the threshold concentration is 31.3 μM to 250 μM),–
"N#Cc1c(F)cnc2[nH]cc(C(=O)c3c(F)ccc(NS(=O)(=O)c4ccc(C(F)(F)F)cc4)c3F)c12 [P-2009, N-[3-(4-Cyano-5-fluoro-1H-pyrrolo[2,3-b]pyridine-3-carbonyl)-2,4-difluoro-phenyl]-4-trifluoromethyl-benzenesulfonamide]",> 0.1,>10,> 10,< 0.1,0.1-10,>10,> 10,< 0.1,> 10,> 10,> 10,> 10,L (low solubility if the threshold concentration is <31.3 μM),M (moderate solubility if the threshold concentration is 31.3 μM to 250 μM),M (moderate solubility if the threshold concentration is 31.3 μM to 250 μM),M (moderate solubility if the threshold concentration is 31.3 μM to 250 μM),–
"N#Cc1c(Cl)cnc2[nH]cc(C(=O)c3c(F)ccc(NS(=O)(=O)c4ccc(C(F)(F)F)cc4)c3F)c12 [P-2010, N-[3-(5-Chloro-4-cyano-1H-pyrrolo[2,3-b]pyridine-3-carbonyl)-2,4-difluoro-phenyl]-4-trifluoromethyl-benzenesulfonamide]",< 0.1,>10,> 10,< 0.1,0.1-10,>10,< 5,< 0.1,5 to 10,> 10,> 10,> 10,L (low solubility if the threshold concentration is <31.3 μM),L (low solubility if the threshold concentration is <31.3 μM),L (low solubility if the threshold concentration is <31.3 μM),M (moderate solubility if the threshold concentration is 31.3 μM to 250 μM),–
"Cc1c(Cl)cnc2[nH]cc(C(=O)c3c(F)ccc(NS(=O)(=O)c4ccc(C(F)(F)F)cc4)c3F)c12 [P-2011, N-[3-(5-Chloro-4-methyl-1H-pyrrolo[2,3-b]pyridine-3-carbonyl)-2,4-difluoro-phenyl]-4-trifluoromethyl-benzene sulfonamide]",> 0.1,>10,> 10,< 0.1,0.1-10,0.1-10,5 to 10,< 0.1,> 10,< 5,> 10,> 10,L (low solubility if the threshold concentration is <31.3 μM),L (low solubility if the threshold concentration is <31.3 μM),L (low solubility if the threshold concentration is <31.3 μM),L (low solubility if the threshold concentration is <31.3 μM),–
"CCCS(=O)(=O)Nc1ccc(F)c(C(=O)c2c[nH]c3nccc(NC4CCCC4)c23)c1F [P-2012, Propane-1-sulfonic acid [3-(4-cyclopentylamino-1H-pyrrolo[2,3-b]pyridine-3-carbonyl)-2,4-difluoro-phenyl]-amide]",< 0.1,0.1-10,–,> 0.1,0.1-10,>10,–,< 0.1,–,–,> 10,–,–,–,–,–,"IC50 at 30 min [12]: > 10 µM; IC50 at 30 min ([5]; human, CYP2D6 enzyme (BD Biosciences), probe AMMC): > 10 µM; IC50 at 45 min ([7]; human, CYP2C9 enzyme (BD Biosciences), probe MFC): > 10 µM; IC50 at 30 min ([8]; human, CYP2C19 enzyme (BD Biosciences), probe CEC): > 10 µM; IC50 at 15 min ([10]; human, CYP1A2 enzyme (BD Biosciences), probe CEC): > 10 µM"
